The values that follow are results of earlier work, collected in patent US9622976B2, “Pharmaceutical composition” (LEK PHARMACEUTICALS D.D., priority 2006, dated 2017).

The conditions of this series: pH 6.8 phosphate buffer.

For the compound `CCCc1nc2c(C)cc(-c3nc4ccccc4n3C)cc2n1Cc1ccc(-c2ccccc2C(=O)O)cc1` [Telmisartan, 2-[4-[[4-methyl-6-(1-methylbenzoimidazol-2-yl)-2-propyl-benzoimidazol-1-yl]methyl]phenyl]benzoic acid], the solubility was not above 2 μg per ml.
